Measurements as given in patent US9802954B2, “Piperidino-dihydrothienopyrimidine sulfoxides and their use for treating COPD and asthma” (Boehringer Ingelheim International GmbH, priority 2011, dated 2017).
“Also recorded” adds a separate entry of the source.

What was measured:
conscious rats = assay: Gastric emptying and gastrointestinal transit in conscious rats (barium sulfate test meal); format: in vivo, rat; conditions: Wistar rats, p.o. 30 min before test meal; for gastric emptying compared to negative control / intestinal transit compared to negative control: all tested doses up to the 30-fold ED50 dose
Description: In order to evaluate whether the compounds of the present invention lead to gastrointestinal side effects the compounds of the invention have been administered to rats 30 minutes before the rats were fed with a test meal comprising barium sulfate. After that it was tested whether gastric emptying and/or gastrointestinal transit in these rats was affected by the presence of these compounds.
The effects of the compounds Example 1 and Example 2 on gastric emptying and gastrointestinal transit in conscious rats has been investigated as described below.
Wistar rats of both sexes weighing 130-160 g (ages: male 7 wk, female 8 wk) were used. The animals are obtained from an approved local distributor, a minimum of four days quarantine is required before use, during which time the animals are maintained under routine animal care procedures. Groups of up to 5 animals are housed in cages in a room with controlled temperature and humidity and a light/dark cycle with the lights on from 6 a.m. to 6 p.m. The animals have access to normal rodent chow and water ad libitum. The animals are transported to the laboratory on the day of experimentation.
Gastric emptying as well as small intestinal propulsion are determined using a barium sulfate test meal.
Five rats Crl:WI(Han) of each sex (n=10) were used. The animals were deprived of food 17 h prior to the experiment but allowed free access to water. The drug under investigation (drug was suspended to the concentration of 10 ml/kg body weight in 0.5% Natrosol solution) or the negative control (vehicle alone was given 10 ml/kg body weight) was administered 30 min. (p.o.) before the test meal at doses calculated to be 3-fold, 10-fold or 30-fold the ED50 found in efficacy studies in the rat.
The test meal (suspension of 7.5 g barium sulfate in 10 ml salt-free water) is given orally by gavage at a dose of 2 ml/100 g body weight. Thirty minutes after the administration of the test meal the animals were killed in deep isoflurane anaesthesia by cervical dislocation. The stomach and the intestine were then exposed by laparatomy and removed.
The removed stomach was weighed, then incised, the contents removed and the empty stomach is weighed again.
The length of gut traversed with barium sulfate in relation to the whole length of the gut is determined by direct measurements using a ruler.
The gastric content was calculated from the weight difference between the filled and empty stomach and normalized to 100 g body weight. Thus, an increase in weight difference indicated an impaired gastric emptying, whereas a decrease in weight difference indicated an enhanced gastric emptying.
The length of gut traversed with barium sulphate (as judged by visual inspection) in relation to the whole length of the gut (from the pylorus to the rectum) is determined by direct measurements using a ruler.
Intestinal transit is calculated as the percentage movement of barium sulphate in the intestine in relation to the whole length of the gut. Consequently an increased intestinal transit length indicated an accelerated intestinal transit whereas a decreased intestinal transit length indicated decelerated intestinal transit.
Data are expressed as mean±standard deviation (SD). For each dose, comparisons were performed using an analysis of variance (ANOVA) and a post hoc Dunnett test to compare the various groups to the controls when the ANOVA was significant. p<0.05 was considered significant.

[1] = system: LPS-induced neutrophil influx into bronchoalveolar lavage fluid of male Wistar rats; assay: LPS-induced lung inflammation model: inhibition of LPS-induced neutrophil influx into bronchoalveolar lavage fluid; format: in vivo, rat; conditions: oral by gavage, BALF 4 hours after end of LPS exposure
Description: The anti-inflammatory activity of Examples 1 and 2 and of Prior art compounds A and D was assessed in an in vivo LPS-induced lung inflammation model in rats.
As a measure of the pharmacological potency of the above mentioned compounds the half-maximal effective dose (ED50) in regard to the inhibition of lipopolysaccharide-induced (LPS-induced) neutrophil influx into the bronchoalveolar lavage fluid (BALF) was determined by assessing the dose response relationship. Bacterial endotoxins (lipopolysaccharides [LPS]) are components of the outer bacterial cell membrane which play an important role in the pathogenesis of infections with gram-negative bacteria. It is known that inhalation of such aerosolized LPS induces a dose-dependent increase in neutrophils to lung tissues and airspaces in rats which may be detected by analyzing the amount of neutrophils in the bronchoalveolar lavage fluid (BALF). […]
Determination of neutrophil content of the BALF was performed using an ADVIA 120 blood hemacytometer (Bayer Diagnostics). Neutrophil data were normalised (Positive Control (=LPS treatment alone)=100%, Negative Control (no LPS treatment, administration of “vehicle only”)=0%) and expressed as percent of LPS control. The ED50 was calculated using a nonlinear fit (with the Graph Pad Prism software and a sigmoidal dose response fit). […]

Compound	gastric emptying (weight difference per body weight) compared to negative control (conscious rats; 3-fold ED50 dose)	gastric emptying (weight difference per body weight) compared to negative control (conscious rats; 10-fold ED50 dose)	gastric emptying (weight difference per body weight) compared to negative control (conscious rats; 30-fold ED50 dose)	gastric emptying compared to negative control (conscious rats)	intestinal transit compared to negative control (conscious rats)	ED50 (inhibition of LPS-induced neutrophil influx into BALF) [1]
[O-][S+]1CCc2nc(N3CCC(c4ccc(Cl)cc4)CC3)nc(NC3(CO)CCC3)c21 (single isomer, unassigned) [Example 1]	no relevant differences	no relevant differences	only a very moderate enhancement of the weight difference per body weight	neither showed a substantially enhanced or impaired gastric emptying	no significant differences	–
[O-][S+]1CCc2nc(N3CCC(c4ncc(Cl)cn4)CC3)nc(NC3(CO)CCC3)c21 (single isomer, unassigned) [Example 2]	–	–	–	neither showed a substantially enhanced or impaired gastric emptying; also recorded: no relevant differences	no relevant differences	–
[O-][S+]1CCc2nc(N3CCC(c4ccc(Cl)cc4)CC3)nc(NC3(CO)CC3)c21 (stereo not drawn) [Prior art compound A]	–	–	–	–	–	1.13 mg/kg body weight
[O-][S+]1CCc2nc(N3CCC(c4cccc(Cl)c4)CC3)nc(NC3(CO)CC3)c21 (stereo not drawn) [Prior art compound D]	–	–	–	–	–	6.66 mg/kg body weight
